Assay results reported in patent US4382765A, “Method of moisturizing the skin with carbamide acid esters” (Henkel Kommanditgesellschaft auf Aktien, priority 1977, dated 1983).

Columns and labels:
[1] = Determination of the equilibrium dampness; type: physicochemical; settings: 24 hours at 23° C.; relative humidity at which neither expulsion nor retention of water is effected; lower is better
Excerpt: (§1) The favorable action of the compounds, which are to be used in accordance with the invention, with respect to their capacity for the absorption and retention of water, was established by means of the test methods described hereinafter. A process for determining the equilibrium dampness which is indicative of the water retention capacity, and the determination of the water retention, rehydration and elasticity of impregnated pig epidermis are described in these tests.
The substances (approximately 300 to 500 mg) to be tested were moistened with a defined quantity of water and were exposed for 24 hours at 23° C. to various relative atmospheric humidities (1%, 30%, 47%, 65%, 89% and 100% relative humidity). The quantity of water absorbed or desorbed was determined gravimetrically and plotted on a graph. The relative humidity at which neither expulsion nor retention of water is effected can be determined from the resultant curves. This value, which is designated as the "equilibrium dampness", is a measure of the water retention capacity of a substance. The lower the value, the more positive is the assessment of the product. Furthermore, the hygroscopicity of the substance can be read from the slope of the curve.

pig epidermis [2] = assay: Water retention of impregnated pig epidermis; settings: 24 hours, 23° C., soaked 2 h in 10% solution, improvement vs blank value (water only)
Excerpt: as §1
(§2) Immediately after the pigs have been killed, the skin bristles are cut off by means of a shearing machine (shearing head 0.1 mm). The pigs are soaked for approximately 3 to 5 minutes in warm water of 60° C., the epidermis is subsequently peeled off and stored at -20° C. until it is used.
(§3) Stamped out pieces of epidermis (1×2 cm) were soaked for two hours in a 10% solution of the test substance. Excess moisture was then removed under standardized conditions by means of a small press, and the pieces were dried for 24 hours, hanging freely between 2 clamps in a 100 ml Erlenmeyer flask at 23° C., both at 30% relative humidity and 50% relative humidity (set by mixtures of sulfuric acid and water). The drying out of the impregnated test pieces to X% of the initial weight was compared with the corresponding value of the epidermis which had been soaked only in water (blank value). In Table I, the improvement in the water retention and in the rehydration as compared with the blank value is given in Δ% H2 O. The deviations in each double test amounted to a maximum of ±2 absolute units. The test was repeated if greater deviations occurred. The rehydration was determined analogously by drying the pig epidermis, which had been impregnated and from which the excess moisture had been removed, for 24 hours at 30% relative humidity, and by subsequent incubation for 24 hours at 90% relative humidity.

pig epidermis [3] = assay: Rehydration of impregnated pig epidermis; settings: dried 24 h at 30% r.h., then incubated 24 h at 90% r.h.; 10% solution; improvement vs blank value
Excerpt: as §1, §2, §3

pig epidermis [4] = assay: Elasticity measurements made on the impregnated pig epidermis; settings: 24 hours, soaked 2 h in 10% aqueous solution; for mm stretch with between 5 and 30 pound loading at 75% r.h.: blank value 0; for mm stretch with between 5 and 30 pound loading at 90% r.h.: blank value 0.3-0.5
Protocol: A process for determining the equilibrium dampness which is indicative of the water retention capacity, and the determination of the water retention, rehydration and elasticity of impregnated pig epidermis are described in these tests.
as §2
Stamped out pieces of pig epidermis (1×6 cm) were soaked for two hours in a 10% aqueous solution of the substance which was to be tested, and excess moisture was removed from these pieces under standarized conditions. […] The amount of stretch in mm, measured in the Hooke range at a load between 5 to 30 pund, was determined as a measure of the elasticity.

SMILES	Equilibrium dampness [1]	Water Retention, % H2O after drying out at 30% r.h. (pig epidermis [2])	Water Retention, % H2O after drying out at 50% r.h. (pig epidermis [2])	Rehydration, Δ% water absorption at 90% r.h. (pig epidermis [3])	mm stretch with between 5 and 30 pound loading at 75% r.h. (pig epidermis [4])	mm stretch with between 5 and 30 pound loading at 90% r.h. (pig epidermis [4])
O=C1NC(CO)(CO)CO1 [Product H, 4,4-bis-hydroxymethyl-oxazolidine-2-one]	76 % r.h.	12 Δ% H2O	15 Δ% H2O	10 Δ% H2O	0.5 mm	2.6 mm
O=C1OCCN1CCO [Product I, N-(2-hydroxyethyl)-oxazolidine-2-one]	68 % r.h.	10 Δ% H2O	16 Δ% H2O	16 Δ% H2O	0.8 mm	6.0 mm
CC(O)CNC(=O)OCCO (stereo not drawn) [Product B, N-(2-hydroxypropyl)-carbamide acid-2-hydroxyethyl ester]	58 % r.h.	23 Δ% H2O	22 Δ% H2O	70 Δ% H2O	1.0 mm	6.0 mm
O=C(NCCO)OCCO [Product A, N-(2-hydroxyethyl)-carbamide acid-2-hydroxyethyl ester]	58 % r.h.	25 Δ% H2O	26 Δ% H2O	62 Δ% H2O	1.1 mm	5.5 mm
CC1(C)COC(=O)N1 [Product F, 4,4-Dimethyl-oxazolidine-2-one]	83 % r.h.	5 Δ% H2O	7 Δ% H2O	5 Δ% H2O	0.4 mm	7.4 mm
